Laboratory results as given in patent publication US10894777B2, “TG2 inhibitor piperazine compounds and uses thereof” (UNIVERSITY OF OTTAWA, priority 2016, dated 2021).

What was measured:
SCC-13 cells [1] = assay: Trypan Blue viability assay, SCC-13 spheroids; type: cell-based, human; details: 0-20 μM, 0-72 hours
Procedure: Trypan Blue viability assay. SCC-13 cells were grown as spheroids in six well cluster dishes in spheroid medium for 8 days and then treated with 0-20 μM NC9. At 0, 24, 48, and 72 hours post-NC9 treatment, spheroids were counted, and all cells in the well were collected to prepare a single cell suspension in Hank's Balanced Salt Solution. Trypan Blue solution (0.5 mL, 0.4%) was added to a 15 mL conical tube with 0.3 mL of Hank's Balanced Salt Solution and 0.2 ml of cell suspension. After 10 min, 8 μL of the mixture was transferred to a hemocytometer to count viable and total cell number.

TG2 level = TG2 level immunoblot, SCC-13 spheroids; type: cell-based, human; details: 20 μM, 48 hours
Procedure: In (A), SCC-13 cells (40,000) were plated in non-adherent six well dishes, grown for 8 days in spheroid medium, and then NC9 was added and spheroid number was monitored at 0-48 hours. In (B), spheroids were grown for 10 days, treated for 48 hours with indicated level of NC9 and photographed. In (C), SCC-13 cells were plated at 40,000 cells per well in non-adherent six well dishes and after 10 days the spheroids were treated with 0-20 μM NC9 for 0-72 hours before trypan blue exclusion viability assay. In (D), SCC-13 spheroids were grown for 10 days, treated with 0 or 20 μM NC9 for 48 hours, and TG2 level was assayed by immunoblot. In (E), SCC-13 cells were grown as monolayers in spheroid medium and TG2 activity was monitored by FC incorporation assay as outlined in the Materials and Methods for Example 7. In (F), SCC-13 cell 8 day spheroids were treated with […] NC9 and cells were harvested at the indicated times for immunoblot detection of procaspase 3 and cleaved caspase 3. In all panels, the values are mean±SEM, n=3, p<0.05.

SCC-13 cells [2] = assay: EMT marker immunoblot, SCC-13 cells; type: cell-based, human; details: 20 μM, 48 h
Procedure: In (A), SCC-13 cells (500,000) were plated in monolayer culture in spheroid medium in 100 mm dishes. Fresh spheroid medium containing 0 or 20 μM NC9 was added at time zero and again at 24 h. After 48 h lysates were collected for electrophoresis and immunoblot. In (B), SCC-13 cells were pretreated with 0 or 20 μM NC9 for 2 h and then harvested and plated (25,000 cells) in the upper chamber in 1 mL of medium, above a matrigel-coated membrane, in a Millicell chamber. After 30 h. the inside of membrane was harvested and the nuclei of migrated cells on the bottom of the membrane were counted using an inverted fluorescent microscope. The values are mean±SEM, n=3 (p, 0.05). In (C), SCC-13 (2 million) cells were plated in spheroid medium in 100 mm dishes and grown as monolayer cultures. Confluent monolayers were then scratched with a 10-μL pipette tip and wound width was monitored for 0-18 h.
Immunoblot. […] Blots were rinsed and then incubated with secondary antibody (diluted 1:5000) for 2 h. Secondary antibody binding was visualized using ECL Prime chemiluminescence detection technology (Amersham).

TG2 = molecular target: T1, TG2 (Homo sapiens, UniProt P21980); assay: Inhibition irreversibility (filtration, dilution, activity assay); type: biochemical; details: after filtration over 10-kDa membrane and dilution
T1 sequence (P21980 1-687): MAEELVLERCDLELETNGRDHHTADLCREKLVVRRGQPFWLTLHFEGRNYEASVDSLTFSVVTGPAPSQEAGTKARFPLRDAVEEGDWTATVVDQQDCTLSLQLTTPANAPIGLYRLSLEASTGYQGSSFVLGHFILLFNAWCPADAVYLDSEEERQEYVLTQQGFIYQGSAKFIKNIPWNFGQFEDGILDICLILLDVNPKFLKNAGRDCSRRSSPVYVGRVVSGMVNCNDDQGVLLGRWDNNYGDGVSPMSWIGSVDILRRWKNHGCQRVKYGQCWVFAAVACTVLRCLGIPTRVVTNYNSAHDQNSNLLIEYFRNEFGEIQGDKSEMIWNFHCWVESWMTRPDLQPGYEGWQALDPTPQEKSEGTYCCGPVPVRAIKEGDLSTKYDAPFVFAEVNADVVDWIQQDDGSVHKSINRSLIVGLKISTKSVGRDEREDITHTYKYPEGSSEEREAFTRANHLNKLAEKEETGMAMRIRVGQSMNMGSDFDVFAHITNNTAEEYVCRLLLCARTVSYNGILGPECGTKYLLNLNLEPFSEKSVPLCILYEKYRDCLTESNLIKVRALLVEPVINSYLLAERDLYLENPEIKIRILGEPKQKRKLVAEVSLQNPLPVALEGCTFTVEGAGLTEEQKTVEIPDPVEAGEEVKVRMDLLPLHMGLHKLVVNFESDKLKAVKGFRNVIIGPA
Source text: Inhibition irreversibility.

| Structure (SMILES) | viable cell number (trypan blue exclusion) (SCC-13 cells [1]) | TG2 level (TG2 level) | E-cadherin level (SCC-13 cells [2]) | EMT transcription factor and EMT marker levels (SCC-13 cells [2]) | recovered activity of inhibited hTG2 (TG2) |
| --- | --- | --- | --- | --- | --- |
| C=CC(=O)NCCCC[C@H](NC(=O)OCc1ccccc1)C(=O)NCCOCCOCCNS(=O)(=O)c1cccc2c(N(C)C)cccc12 [NC9] | concentration-dependent reduction in viable cell number | not associated with reduced TG2 level | elevated | reduced EMT transcription factor (Twist, Snail, Slug) and EMT marker (vimentin, fibronectin, N-cadherin, HIF-1α) levels |  |
| C=CC(=O)NCCCC[C@H](NC(=O)OCc1ccccc1)C(=O)N1CCN(S(=O)(=O)c2cccc3c(N(C)C)cccc23)CC1 [VA4, (S)-benzyl(6-acrylamido-1-(4-((5-(dimethylamino)naphthalen-1-yl)sulfonyl)piperazin-1-yl)-1-oxohexan-2-yl)carbamate] |  |  |  |  | no recovered activity |
